Assay results as given in patent publication US8933130B2, “Treatment of vasomotor symptoms with selective estrogen receptor modulators” (Radius Health, Inc., priority 2006, dated 2015).
Blank lines part the entries; values can stand above or below the compound they belong to.

How the values were obtained:
[1] = tested on: morphine-addicted ovariectomized rats; experiment: Rodent model of hot flashes: tail skin temperature change after naloxone in morphine-addicted ovariectomized rats; assay type: in vivo, rat; conditions: for Mean Tail Skin Temp.: tail skin temperature change after naloxone, ovariectomized rats, vehicle 5.6° C.
Description: The SERM, (R)-6-{2-{Ethyl[4-(2-ethylaminoethyl)benzyl]amino}-4-methoxyphenyl}-5,6,7,8-tetrahydronaphthalen-2-ol (“SERM A”), was evaluated for its ability to modulate vasomotor activity in a rodent model of hot flashes. (Merchenthaler, Maturitas, 1998 30:307-316). Briefly, ovariectomized adult rats were implanted with slow release morphine sulfate pellets on days 5 and 6 post-ovariectomy. Beginning at 4 days post-ovariectomy, once-daily treatment was initiated with a positive control, ethynyl estradiol (0.3 mg/kg), SERM A (1 and 10 mg/kg) or vehicle (95% corn oil, 5% DMSO by volume), delivered by subcutaneous injection. Treatment with the test agents was continued daily until the end of the study. On day 10, probes capable of continuously monitoring temperature were applied to the tail skin surface of the treated rats. The rats were then treated with naloxone, a morphine antagonist, and the change in skin temperature recorded for a period of 60 minutes.

[2] = tested on: 19-day old Sprague-Dawley rats (uteri); experiment: Antagonism of estradiol-mediated uterine stimulation: uterine wet weight in 19-day old rats; assay type: in vivo, rat; conditions: SERM A 10, 3, 1, 0.3, 0.1, 0.03, 0.01 mg/kg combined with estradiol 0.01 mg/kg, s.c. once daily for three days; FIG. 3
Description: (§1) 19-day old Sprague-Dawley rats were treated with either vehicle (95% corn oil/5% DMSO), estradiol (0.01 mg/kg), or a combination of estradiol (0.01 mg/kg) and SERM A (10, 3, 1, 0.3, 0.1, 0.03, 0.01 mg/kg). The rats were dosed once daily by subcutaneous injection for three consecutive days. 24 hours after the last dose, the rats were euthanized, uteri were harvested and their wet weight recorded.

[3] = tested on: 19-day old Sprague-Dawley rats (uteri); conditions: rat, in vivo
Description: as §1, with “mg/kg), raloxifene (10 mg/kg), tamoxifen (1 mg/kg)” for “mg/kg),”, “or” for “or a combination of estradiol (0.01 mg/kg) and”, “(100, 30, 10,” for “(10,”, “or 0.3” for “0.3, 0.1, 0.03, 0.01”

SMILES: C#C[C@]1(O)CC[C@H]2[C@@H]3CCc4cc(O)ccc4[C@H]3CC[C@@]21C [Ethynyl estradiol, ethynyl estradiol, reference compound]
increase in skin temperature after naloxone treatment, compared to vehicle ([1]; 0.3 mg/kg s.c. once daily): significantly reduced the increase in skin temperature
Mean Tail Skin Temp. ([1]; 0.3 mg/kg once daily s.c.): 1.2 °C

uterine stimulation at doses effective at modulating vasomotor response [3]: lack of uterine stimulation
SMILES: CCNCCc1ccc(CN(CC)c2cc(OC)ccc2[C@@H]2CCc3cc(O)ccc3C2)cc1 [SERM A, (R)-6-{2-{Ethyl[4-(2-ethylaminoethyl)benzyl]amino}-4-methoxyphenyl}-5,6,7,8-tetrahydronaphthalen-2-ol]
estradiol-mediated increase in uterine weight [2]: decreased the estradiol-mediated increase in a dosage dependent manner
increase in skin temperature after naloxone treatment, compared to vehicle ([1]; 0.1 and 0.01 mg/kg): did not significantly reduce the increase in skin temperature
increase in skin temperature after naloxone treatment, compared to vehicle ([1]; 1 or 10 mg/kg s.c. once daily): significantly reduced the increase in skin temperature
elevation of tail skin temperature associated with morphine addiction withdrawal ([1]; morphine-addicted ovariectomized rats, FIG. 1): suppressing the elevation of tail skin temperature
activity on reducing tail skin temperature increase, compared with positive control ethynyl estradiol ([1]; statistical analysis, SERM A 1 and 10 mg/kg vs ethynyl estradiol 0.3 mg/kg): no significant difference
Mean Tail Skin Temp. ([1]; 1 mg/kg once daily s.c.): 2.1 °C
Mean Tail Skin Temp. ([1]; 10 mg/kg once daily s.c.): 2.0 °C
